53 molecules from US8598193B2, “Polycyclic agents for the treatment of respiratory syncytial virus infections” (Biota Scientific Management Pty Ltd., priority 2003, dated 2013) can be followed below.

Structures are written as SMILES. In brackets after ≈: the same amount, converted by molar mass.

One assay relates to RSV A2. Briefly: RSV antiviral cytopathic effect (CPE) assay, MTT readout. In kind it is cell-based. As to conditions: human respiratory syncytial virus, HEp-2, 120 h; RSV A2 in HEp2 cells, CPE assay, MTT, approx. 5 days; read-out: Activity Range (RSV A2 antiviral EC50), compounds of Table 2. Here is the method: Method Q: RSV Antiviral Assay Protocol
Compounds of the invention were tested for their antiviral activity against respiratory syncytial virus. Cytopathic effect (CPE) assays were performed essentially as described in the literature (see for example Watanabe et al, 1. Virological Methods, 1994, 48, 257). Serial dilutions of the test compounds were made in assay medium. HEp2 cells (1.0×10^4 cells/well) were infected with RSV at a low multiplicity of infection (e.g. RSV A2 at an moi of 0.01) and 100 μL added to cultures assessing antiviral activity and cells without virus added to those assessing compound cytotoxicity. Assays were incubated for approximately 5 days at 37° C. in a 5% CO2 atmosphere. The extent of CPE was determined via metabolism of the vital dye 3-(4,5-dimethylthiaxol-2-yl)-2,5-diphenyltetrazolium bromide (MTT). A 3 mg/ml stock of MTT was made in assay medium and 100 μL added to each well, taking the final MTT concentration to […]. After 2 hours incubation at 37° C., the media-MTT solution was removed and 200 μL of isopropanol was added to dissolve the vital dye crystals. Plates were shaken and the absorbance read at 540 nm. The compound concentrations that inhibited CPE by 50% (EC50) and developed cytotoxicity (CC50) were calculated using an Excel curve fitting program.
As a reminder, the EC50 is the concentration that produces a half-maximal response. On to `Cc1cc(C(=O)N2CCN3C(=O)c4ccccc4C32c2ccc(Cl)cc2)c(C)o1` (centres unmarked) [Compound 325], for which the EC50 was under 0.1 µg/mL. On the same count and under the same terms, with `O=C(c1ccoc1)N1CCN2C(=O)c3ccccc3C12c1ccc(Cl)cc1` (centres unmarked) [Compound 326] the figure was 0.1 to 0.25 µg/mL (≈ 0.264 to 0.66 µM); with `O=C(c1ccsc1)N1CCN2C(=O)c3ccccc3C12c1ccc(Cl)cc1` (centres unmarked) [Compound 327], 0.1 to 0.25 µg/mL (≈ 0.253 to 0.633 µM); with `O=C1c2ccccc2C2(c3ccc(Cl)cc3)N1CCN2C(=O)c1sccc1Cl` (centres unmarked) [Compound 328], 0.1 to 0.25 µg/mL (≈ 0.233 to 0.582 µM). Same read-out and setting: as for `CCOc1ccsc1C(=O)N1CCN2C(=O)c3ccccc3C21c1ccc(Cl)cc1` (centres unmarked) [Compound 329], the figure is 0.1 to 0.25 µg/mL (≈ 0.228 to 0.57 µM).

Turning to `O=C(c1cccc(Cl)n1)N1CCN2C(=O)c3ccccc3C12c1ccc(Cl)cc1` (centres unmarked) [Compound 330], the EC50 was 0.1 to 0.25 µg/mL (≈ 0.236 to 0.589 µM). Still for that read-out and setting: as for `O=C1c2ccccc2C2(c3ccc(Cl)cc3)N1CCN2C(=O)c1nsc(Cl)c1Cl` (centres unmarked) [Compound 331], the figure is 0.25 to 1 µg/mL (≈ 0.538 to 2.15 µM); as for `COc1ccc(-c2ocnc2C(=O)N2CCN3C(=O)c4ccccc4C32c2ccc(Cl)cc2)cc1` (centres unmarked) [Compound 332], under 0.1 µg/mL.

Regarding `Cn1cc(C(=O)N2CCN3C(=O)c4ccccc4C32c2ccc(Cl)cc2)c(C(F)(F)F)n1` (centres unmarked) [Compound 333], the EC50 is under 0.1 µg/mL. Still for that read-out and setting: with `O=C(c1cscn1)N1CCN2C(=O)c3ccccc3C12c1ccc(Cl)cc1` (centres unmarked) [Compound 334] the figure was 0.1 to 0.25 µg/mL (≈ 0.253 to 0.632 µM). Take `Cc1nonc1C(=O)N1CCN2C(=O)c3ccccc3C21c1ccc(Cl)cc1` (centres unmarked) [Compound 335]: the EC50 is under 0.1 µg/mL.

Still in this assay, the particulars now being: human respiratory syncytial virus, HEp-2, 120 h; RSV A2 in HEp2 cells, CPE assay, MTT, approx. 5 days; read-out: Activity Range (RSV A2 antiviral EC50), compounds of Table 3.
Regarding `O=C(c1ccc(F)cc1)N1CCN2C(=O)c3ccncc3C12c1ccccc1Cl` (centres unmarked) [Compound 344], the EC50 lay in the range of 0.25 to 1 µg/mL (≈ 0.613 to 2.45 µM). Same read-out and setting: as for `COc1ccc(CC(=O)N2CCN3C(=O)c4ccncc4C23c2ccc(Cl)cc2)cc1` (centres unmarked) [Compound 351], the figure is 0.25 to 1 µg/mL (≈ 0.576 to 2.3 µM); as for `O=C(c1ccc(F)cc1)N1CCN2C(=O)c3ccncc3C12c1ccc(Br)cc1` (centres unmarked) [Compound 358], 0.1 to 0.25 µg/mL (≈ 0.221 to 0.553 µM). For the molecule `O=C(c1ccc(F)cc1)N1CCN2C(=O)c3cccnc3C12c1ccc(Cl)cc1` (centres unmarked) [Compound 360], the EC50 is 0.25 to 1 µg/mL (≈ 0.613 to 2.45 µM). On the same count and under the same terms, with `CCc1ccc(C23c4cnccc4C(=O)N2CCN3C(=O)c2ccc(F)cc2)cc1` (centres unmarked) [Compound 361] the figure was 0.1 to 0.25 µg/mL (≈ 0.249 to 0.623 µM); with `O=C(c1cccnc1)N1CCN2C(=O)c3ccncc3C12c1ccc(Cl)cc1` (centres unmarked) [Compound 363], under 0.1 µg/mL. On the same count and under the same terms, with `O=C(c1ccc(Cl)nc1)N1CCN2C(=O)c3ccncc3C12c1ccc(Cl)cc1` (centres unmarked) [Compound 364] the figure was 0.25 to 1 µg/mL (≈ 0.588 to 2.35 µM); with `O=C(c1ccc(F)nc1)N1CCN2C(=O)c3ccncc3C12c1ccc(Br)cc1` (centres unmarked) [Compound 366], under 0.1 µg/mL.

Regarding `O=C(c1ccc(F)nc1)N1CCN2C(=O)c3cnccc3C12c1ccc(Br)cc1` (centres unmarked) [Compound 367], the EC50 lay within 0.25 to 1 µg/mL (≈ 0.552 to 2.21 µM). Same read-out and setting: as for `O=C(c1ccc(F)nc1)N1CCN2C(=O)c3ccncc3C12c1ccc(Cl)cc1` (centres unmarked) [Compound 368], the figure is under 0.1 µg/mL; as for `O=C(c1ccc(F)nc1)N1CCN2C(=O)c3cccnc3C12c1ccc(Cl)cc1` (centres unmarked) [Compound 369], 0.1 to 0.25 µg/mL (≈ 0.245 to 0.612 µM); as for `O=C(c1ccc(F)nc1)N1CCN2C(=O)c3ncccc3C12c1ccc(Cl)cc1` (centres unmarked) [Compound 370], 0.25 to 1 µg/mL (≈ 0.612 to 2.45 µM). On the same count and under the same terms, as for `CCc1ccc(C23c4cnccc4C(=O)N2CCN3C(=O)Cc2ccc(OC)cc2)cc1` (centres unmarked) [Compound 371], the figure is 0.25 to 1 µg/mL (≈ 0.585 to 2.34 µM); as for `CCc1ccc(C23c4c[n+]([O-])ccc4C(=O)N2CCN3C(=O)c2ccc(F)cc2)cc1` (centres unmarked) [Compound 372], 0.25 to 1 µg/mL (≈ 0.599 to 2.4 µM). Same read-out and setting: as for `O=C(c1csc(-c2cccs2)n1)N1CCN2C(=O)c3ccncc3C12c1ccc(Cl)cc1` (centres unmarked) [Compound 377], the figure is under 0.1 µg/mL; as for `O=C1c2ccncc2C2(c3ccc(Cl)cc3)N1CCN2C(=O)c1csc2ccccc12` (centres unmarked) [Compound 379], 0.1 to 0.25 µg/mL (≈ 0.224 to 0.561 µM). With `O=C(c1csc(-c2cccnc2)n1)N1CCN2C(=O)c3ccncc3C12c1ccc(Cl)cc1` (centres unmarked) [Compound 381], the EC50 is under 0.1 µg/mL.

In the case of `Cc1cc(C(=O)N2CCN3C(=O)c4ccncc4C23c2ccc(Cl)cc2)no1` (centres unmarked) [Compound 382], the half-maximal effective concentration (EC50) was in the range of 0.25 to 1 µg/mL (≈ 0.633 to 2.53 µM). As for `Cc1cc(C(=O)N2CCN3C(=O)c4ccncc4C32c2ccc(Cl)cc2)c(C(F)(F)F)o1` (centres unmarked) [Compound 385], the EC50 was under 0.1 µg/mL. Regarding `Cc1nnsc1C(=O)N1CCN2C(=O)c3ccncc3C21c1ccc(Cl)cc1` (centres unmarked) [Compound 386], the EC50 is 0.1 to 0.25 µg/mL (≈ 0.243 to 0.607 µM). Still for that read-out and setting: as for `Cc1nn(-c2ccccc2)nc1C(=O)N1CCN2C(=O)c3ccncc3C21c1ccc(Cl)cc1` (centres unmarked) [Compound 387], the figure is 0.1 to 0.25 µg/mL (≈ 0.212 to 0.531 µM). The same measure, in the same setting: with `O=C(c1csc(-c2ccccc2)n1)N1CCN2C(=O)c3ccncc3C12c1ccc(Cl)cc1` (centres unmarked) [Compound 391] the figure was under 0.1 µg/mL; with `Cc1noc(C)c1C(=O)N1CCN2C(=O)c3ccncc3C21c1ccc(Cl)cc1` (centres unmarked) [Compound 392], 0.1 to 0.25 µg/mL (≈ 0.245 to 0.611 µM). Same read-out and setting: with `Cc1oc(-c2ccccc2)cc1C(=O)N1CCN2C(=O)c3ccncc3C21c1ccc(Cl)cc1` (centres unmarked) [Compound 394] the figure was 0.25 to 1 µg/mL (≈ 0.532 to 2.13 µM); with `O=C1c2ccncc2C2(c3ccc(Cl)cc3)N1CCN2C(=O)c1cccnc1Oc1ccc(Cl)cc1` (centres unmarked) [Compound 395], 0.25 to 1 µg/mL (≈ 0.483 to 1.93 µM). In the case of `CCSc1ncccc1C(=O)N1CCN2C(=O)c3ccncc3C21c1ccc(Cl)cc1` (centres unmarked) [Compound 397], the EC50 was in the range of 0.1 to 0.25 µg/mL (≈ 0.222 to 0.554 µM). `CSc1ncccc1C(=O)N1CCN2C(=O)c3ccncc3C21c1ccc(Cl)cc1` (centres unmarked) [Compound 398]: the EC50 lay within 0.1 to 0.25 µg/mL (≈ 0.229 to 0.572 µM). The same measure, in the same setting: with `CCCCCSc1ncccc1C(=O)N1CCN2C(=O)c3ccncc3C21c1ccc(Cl)cc1` (centres unmarked) [Compound 399] the figure was 0.25 to 1 µg/mL (≈ 0.507 to 2.03 µM); with `CCCSc1ncccc1C(=O)N1CCN2C(=O)c3ccncc3C21c1ccc(Cl)cc1` (centres unmarked) [Compound 401], 0.1 to 0.25 µg/mL (≈ 0.215 to 0.538 µM). On the same count and under the same terms, as for `O=C1c2ccncc2C2(c3ccc(Cl)cc3)N1CCN2C(=O)c1cccnc1Oc1ccccc1` (centres unmarked) [Compound 404], the figure is 0.25 to 1 µg/mL (≈ 0.518 to 2.07 µM).

Turning to `O=C(c1cncc(Br)c1)N1CCN2C(=O)c3ccncc3C12c1ccc(Cl)cc1` (centres unmarked) [Compound 405], the EC50 is 0.1 to 0.25 µg/mL (≈ 0.213 to 0.532 µM). On the same count and under the same terms, as for `O=C(c1cncc(C#Cc2ccccc2)c1)N1CCN2C(=O)c3ccncc3C12c1ccc(Cl)cc1` (centres unmarked) [Compound 406], the figure is 0.25 to 1 µg/mL (≈ 0.509 to 2.04 µM). Same read-out and setting: as for `CCCCC#Cc1cncc(C(=O)N2CCN3C(=O)c4ccncc4C23c2ccc(Cl)cc2)c1` (centres unmarked) [Compound 408], the figure is 0.25 to 1 µg/mL (≈ 0.531 to 2.12 µM).

Take `O=C(c1cncc(-c2cccs2)c1)N1CCN2C(=O)c3ccncc3C12c1ccc(Cl)cc1` (centres unmarked) [Compound 409]: the EC50 is 0.1 to 0.25 µg/mL (≈ 0.211 to 0.529 µM). Same read-out and setting: with `Cc1cc(C(=O)N2CCN3C(=O)c4ccncc4C32c2ccc(Cl)cc2)c(C)o1` (centres unmarked) [Compound 412] the figure was under 0.1 µg/mL; with `O=C(c1ccco1)N1CCN2C(=O)c3ccncc3C12c1ccc(Cl)cc1` (centres unmarked) [Compound 413], under 0.1 µg/mL; with `O=C(c1ccoc1)N1CCN2C(=O)c3ccncc3C12c1ccc(Cl)cc1` (centres unmarked) [Compound 414], under 0.1 µg/mL. The same measure, in the same setting: as for `Cc1cc(C(=O)N2CCN3C(=O)c4ccncc4C23c2ccc(Cl)cc2)oc1C` (centres unmarked) [Compound 415], the figure is 0.25 to 1 µg/mL (≈ 0.613 to 2.45 µM); as for `O=C(c1ccc(C#Cc2ccccc2)o1)N1CCN2C(=O)c3ccncc3C12c1ccc(Cl)cc1` (centres unmarked) [Compound 416], 0.25 to 1 µg/mL (≈ 0.521 to 2.08 µM); as for `Cc1cc(C(=O)N2CCN3C(=O)c4ccncc4C32c2ccc(Cl)cc2)n(C)n1` (centres unmarked) [Compound 420], 0.25 to 1 µg/mL (≈ 0.613 to 2.45 µM). On the same count and under the same terms, as for `Cc1cc(C(=O)N2CCN3C(=O)c4ccncc4C23c2ccc(Cl)cc2)nn1C` (centres unmarked) [Compound 421], the figure is 0.25 to 1 µg/mL (≈ 0.613 to 2.45 µM); as for `CCn1nc(C)cc1C(=O)N1CCN2C(=O)c3ccncc3C21c1ccc(Cl)cc1` (centres unmarked) [Compound 422], 0.25 to 1 µg/mL (≈ 0.593 to 2.37 µM).
